From ChEMBL document CHEMBL1201862, “PubChem BioAssay data set” (2004)
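96-well plates; 48 h exposure; 5 concentrations. Endpoints by linear interpolation between flanking doses. Not reached: highest tested concentration assigned. GI50 = concentration required for 50% inhibition of growth.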 Activity calls are given as the source filed them. No stated cut-off is given here; in the data, active = GI50 up to about 1.1 µM and inactive = higher.

Experiments:
Assay in all cases: DTP human tumour cell line panel, 48 h
Malme-3M = tested on: Malme-3M
HL-60 = tested on: HL-60
EKVX = tested on: EKVX
HCC 2998 = tested on: HCC 2998
ACHN = tested on: ACHN
SNB-19 = tested on: SNB-19
SF-295 = tested on: SF-295
OVCAR-5 = tested on: OVCAR-5
RXF 393 = tested on: RXF 393
HOP-62 = tested on: HOP-62
OVCAR-3 = tested on: OVCAR-3
MOLT-4 = tested on: MOLT-4
HCT-116 = tested on: HCT-116
HOP-92 = tested on: HOP-92
SR = tested on: SR
HT-29 = tested on: HT-29
NCI-H226 = tested on: NCI-H226
PC-3 = tested on: PC-3
TK-10 = tested on: TK-10

Measured: GI50

COc1cc(/C=C/c2ccc(/C=C/c3cc(OC)c(OC)c(OC)c3)cc2)cc(OC)c1OC
inactive: Malme-3M 20.3 µM | HL-60 > 66.5 µM | EKVX > 46.9 µM | HCC 2998 22.2 µM | ACHN 16.3 µM | SNB-19 13.6 µM | SF-295 10.9 µM | OVCAR-5 60.5 µM | RXF 393 6.68 µM | HOP-62 16.6 µM | OVCAR-3 25.2 µM | MOLT-4 > 100 µM | HCT-116 28.7 µM | HOP-92 15.4 µM | SR > 100 µM | HT-29 8.26 µM | NCI-H226 20.3 µM | PC-3 27.5 µM | TK-10 17.6 µM

CC(O)CCC(=O)c1ccoc1 (centres undefined)
inactive: Malme-3M 6820 µM | HL-60 3350 µM | EKVX 6080 µM | HCC 2998 8610 µM | ACHN 5640 µM | SNB-19 7000 µM | SF-295 7130 µM | OVCAR-5 7820 µM | RXF 393 4850 µM | HOP-62 6930 µM | OVCAR-3 3610 µM | MOLT-4 4080 µM | HCT-116 5740 µM | HOP-92 2490 µM | SR > 9290 µM | HT-29 8450 µM | NCI-H226 5610 µM | PC-3 6120 µM | TK-10 6980 µM

CCC(=O)Nc1ccc(/N=N/N(C)C)cc1
inactive: Malme-3M 2.13 µM | HL-60 42.8 µM | EKVX > 100 µM | HCC 2998 1.66 µM | ACHN > 100 µM | SNB-19 > 100 µM | OVCAR-5 > 100 µM | RXF 393 > 100 µM | HOP-62 > 100 µM | MOLT-4 6.73 µM | HCT-116 > 100 µM | HOP-92 12.4 µM | HT-29 > 100 µM | NCI-H226 > 100 µM | PC-3 > 100 µM

COc1ccc(/C(=N\NC(=S)NN)C(c2ccc(OC)cc2)C2C(=O)Oc3ccccc32)cc1 (centres undefined)
inactive: Malme-3M > 10 µM | HL-60 > 10 µM | EKVX > 10 µM | HCC 2998 9.31 µM | ACHN > 10 µM | SNB-19 > 10 µM | SF-295 > 10 µM | OVCAR-5 > 10 µM | RXF 393 > 10 µM | HOP-62 > 10 µM | OVCAR-3 > 10 µM | HCT-116 > 10 µM | HOP-92 > 10 µM | SR 80.7 µM | HT-29 > 10 µM | NCI-H226 > 10 µM | TK-10 > 10 µM

C#CC(C)(C)OCCCCOc1cc(O)c2c(=O)c3ccccc3n(C)c2c1
inactive: Malme-3M > 100 µM | HL-60 > 100 µM | EKVX > 100 µM | HCC 2998 66.1 µM | ACHN > 100 µM | SNB-19 > 100 µM | SF-295 > 100 µM | OVCAR-5 > 100 µM | RXF 393 > 100 µM | HOP-62 > 100 µM | OVCAR-3 > 100 µM | HCT-116 > 100 µM | HOP-92 > 100 µM | SR 89.3 µM | HT-29 21.7 µM | NCI-H226 > 100 µM | TK-10 > 100 µM

Nc1ncnc(NC2C=C(CO)C(O)C2O)c1[N+](=O)[O-] (centres undefined)
inactive: HL-60 > 100 µM | EKVX > 100 µM | HCC 2998 > 100 µM | ACHN > 100 µM | SNB-19 > 100 µM | SF-295 > 100 µM | OVCAR-5 > 100 µM | RXF 393 > 100 µM | HOP-62 > 100 µM | OVCAR-3 > 100 µM | MOLT-4 > 100 µM | HCT-116 32.9 µM | SR > 100 µM | HT-29 > 100 µM | NCI-H226 > 100 µM | TK-10 > 100 µM

COC1CCC(OC)C(C2(C3CC(OC)CCC3OC)OC(=O)c3ccccc32)C1 (centres undefined)
inactive: Malme-3M > 100 µM | HL-60 13.7 µM | EKVX 60.8 µM | HCC 2998 66.4 µM | ACHN > 100 µM | SNB-19 > 100 µM | SF-295 82.2 µM | OVCAR-5 > 100 µM | RXF 393 > 100 µM | HOP-62 > 100 µM | OVCAR-3 75.9 µM | MOLT-4 14.6 µM | HCT-116 > 100 µM | HOP-92 > 100 µM | SR 9.16 µM | HT-29 33.8 µM | NCI-H226 86.7 µM | TK-10 > 100 µM

Cc1cc(C)nc(/C(=N\NC(N)=O)C(=O)Nc2nc3ccc(C)cc3s2)c1
inactive: Malme-3M > 100 µM | HL-60 > 100 µM | EKVX > 100 µM | HCC 2998 > 100 µM | ACHN > 100 µM | SNB-19 > 100 µM | SF-295 > 100 µM | OVCAR-5 > 100 µM | RXF 393 > 100 µM | HOP-62 > 100 µM | OVCAR-3 > 100 µM | MOLT-4 > 100 µM | HCT-116 > 56.5 µM | HOP-92 > 100 µM | SR 19.5 µM | HT-29 > 77.3 µM | NCI-H226 > 100 µM | TK-10 > 100 µM

CC(C)=NOC(=O)Nc1cccc2c1OCO2
inactive: Malme-3M > 100 µM | EKVX > 100 µM | HCC 2998 > 100 µM | ACHN 80.9 µM | SNB-19 > 100 µM | SF-295 > 100 µM | OVCAR-5 > 100 µM | RXF 393 > 100 µM | HOP-62 > 100 µM | OVCAR-3 > 100 µM | MOLT-4 > 100 µM | HCT-116 > 100 µM | HOP-92 > 100 µM | HT-29 > 100 µM | NCI-H226 > 100 µM | PC-3 > 100 µM | TK-10 > 100 µM

CC(=O)N1c2ccccc2C23CCN(C)CC4C(C)OCC(C4CC2=O)C13 (centres undefined)
inactive: Malme-3M > 100 µM | HL-60 > 100 µM | EKVX > 100 µM | HCC 2998 > 100 µM | ACHN > 100 µM | SNB-19 > 100 µM | SF-295 > 100 µM | OVCAR-5 > 100 µM | RXF 393 > 100 µM | MOLT-4 > 100 µM | HCT-116 > 100 µM | HOP-92 > 100 µM | SR > 100 µM | HT-29 > 100 µM | NCI-H226 > 100 µM | PC-3 > 100 µM | TK-10 > 100 µM

CCOC(=O)/C=C/n1c2ccccc2c(=O)c2ccccc21
inactive: Malme-3M > 100 µM | HL-60 > 100 µM | EKVX > 100 µM | HCC 2998 > 100 µM | ACHN > 100 µM | SNB-19 > 100 µM | SF-295 > 100 µM | RXF 393 > 100 µM | HOP-62 > 100 µM | OVCAR-3 > 100 µM | MOLT-4 > 100 µM | HCT-116 > 100 µM | SR > 100 µM | HT-29 > 100 µM | NCI-H226 > 100 µM | TK-10 > 100 µM

CO/C=C(\Br)c1ccc2c(c1)OCO2
inactive: Malme-3M > 100 µM | HL-60 > 100 µM | EKVX > 100 µM | ACHN > 100 µM | SNB-19 > 100 µM | SF-295 > 100 µM | OVCAR-5 > 100 µM | RXF 393 > 100 µM | HOP-62 > 100 µM | OVCAR-3 > 100 µM | MOLT-4 73.5 µM | HCT-116 > 100 µM | HOP-92 > 100 µM | SR > 100 µM | NCI-H226 > 100 µM | TK-10 > 100 µM

Nc1nc(CCC(=O)Nc2cccc(C(F)(F)F)c2)cc(-c2ccc3ccccc3c2)n1
inactive: Malme-3M > 100 µM | HL-60 > 100 µM | EKVX > 100 µM | HCC 2998 > 100 µM | ACHN > 100 µM | SNB-19 > 100 µM | SF-295 > 100 µM | OVCAR-5 > 100 µM | RXF 393 > 100 µM | HOP-62 > 100 µM | OVCAR-3 > 100 µM | MOLT-4 > 100 µM | HCT-116 > 100 µM | HOP-92 > 100 µM | SR > 100 µM | HT-29 > 100 µM | NCI-H226 > 100 µM | TK-10 > 100 µM

c1ccc2c(C3NCCc4nc[nH]c43)cccc2c1 (centres undefined)
inactive: HCC 2998 > 100 µM | ACHN > 100 µM | SF-295 > 100 µM | OVCAR-5 > 100 µM | RXF 393 > 100 µM | HOP-62 > 100 µM | OVCAR-3 > 100 µM | MOLT-4 > 100 µM | HCT-116 > 100 µM | HOP-92 > 100 µM | SR > 100 µM | HT-29 > 100 µM | NCI-H226 > 100 µM | TK-10 > 100 µM

CCCCSC1CCSc2c1ccc1ccccc21 (centres undefined)
inactive: Malme-3M 10.2 µM | HL-60 93.1 µM | HCC 2998 65.9 µM | SNB-19 > 100 µM | SF-295 > 100 µM | OVCAR-5 42 µM | RXF 393 52.8 µM | HOP-62 > 100 µM | MOLT-4 34.3 µM | HCT-116 53 µM | HOP-92 46.8 µM | SR 72.3 µM | HT-29 71.6 µM | TK-10 > 100 µM

CCOC(=O)C1S/C(=N\c2cccc(Cl)c2C)N=C1C (centres undefined)
inactive: Malme-3M 19.6 µM | HL-60 21.6 µM | EKVX > 10 µM | HCC 2998 > 10 µM | ACHN 25.3 µM | SNB-19 31.4 µM | SF-295 18.8 µM | OVCAR-5 18.7 µM | RXF 393 21.7 µM | HOP-62 80 µM | OVCAR-3 22.9 µM | MOLT-4 29.7 µM | HCT-116 22.8 µM | HOP-92 15.1 µM | SR 24.7 µM | HT-29 17 µM | NCI-H226 32.8 µM | TK-10 35.6 µM
